In one experiment the target is PI3K-γ (Homo sapiens, UniProt P48736). The experiment in a line: PI3K-gamma fluorescence polarization assay. (In general: In fluorescence polarisation assays a small probe gives low polarisation when free and higher when bound to something large.)
For the next experiment, the target named is PI3K-α (Homo sapiens, UniProt P42336). The experiment in a line: PI3K-alpha fluorescence polarization assay. Particulars: read-out: IC50 PI3Kα.
The target in a further experiment is Human mTOR (FLAG-TOR) (Homo sapiens, UniProt P42345). Nature of the experiment: mTOR kinase assay (DELFIA format, purified enzyme). It is filed as biochemical. Particulars: read-out: IC50 mTOR.
Experiment [1] deals with human prostate LNCap tumor cell line. The experiment in a line: In vitro cell culture growth assay (MTS), LNCap. Particulars: Homo sapiens, LNCaP, 72 h, read-out: IC50 LNCap.

A word on the IC50: it is the concentration that gives 50% inhibition.

Like-named read-outs stand apart in the source and are kept apart here. Bounds are passed on as bounds.

Chain of PI3K-α (P42336 whole entry, species assumed): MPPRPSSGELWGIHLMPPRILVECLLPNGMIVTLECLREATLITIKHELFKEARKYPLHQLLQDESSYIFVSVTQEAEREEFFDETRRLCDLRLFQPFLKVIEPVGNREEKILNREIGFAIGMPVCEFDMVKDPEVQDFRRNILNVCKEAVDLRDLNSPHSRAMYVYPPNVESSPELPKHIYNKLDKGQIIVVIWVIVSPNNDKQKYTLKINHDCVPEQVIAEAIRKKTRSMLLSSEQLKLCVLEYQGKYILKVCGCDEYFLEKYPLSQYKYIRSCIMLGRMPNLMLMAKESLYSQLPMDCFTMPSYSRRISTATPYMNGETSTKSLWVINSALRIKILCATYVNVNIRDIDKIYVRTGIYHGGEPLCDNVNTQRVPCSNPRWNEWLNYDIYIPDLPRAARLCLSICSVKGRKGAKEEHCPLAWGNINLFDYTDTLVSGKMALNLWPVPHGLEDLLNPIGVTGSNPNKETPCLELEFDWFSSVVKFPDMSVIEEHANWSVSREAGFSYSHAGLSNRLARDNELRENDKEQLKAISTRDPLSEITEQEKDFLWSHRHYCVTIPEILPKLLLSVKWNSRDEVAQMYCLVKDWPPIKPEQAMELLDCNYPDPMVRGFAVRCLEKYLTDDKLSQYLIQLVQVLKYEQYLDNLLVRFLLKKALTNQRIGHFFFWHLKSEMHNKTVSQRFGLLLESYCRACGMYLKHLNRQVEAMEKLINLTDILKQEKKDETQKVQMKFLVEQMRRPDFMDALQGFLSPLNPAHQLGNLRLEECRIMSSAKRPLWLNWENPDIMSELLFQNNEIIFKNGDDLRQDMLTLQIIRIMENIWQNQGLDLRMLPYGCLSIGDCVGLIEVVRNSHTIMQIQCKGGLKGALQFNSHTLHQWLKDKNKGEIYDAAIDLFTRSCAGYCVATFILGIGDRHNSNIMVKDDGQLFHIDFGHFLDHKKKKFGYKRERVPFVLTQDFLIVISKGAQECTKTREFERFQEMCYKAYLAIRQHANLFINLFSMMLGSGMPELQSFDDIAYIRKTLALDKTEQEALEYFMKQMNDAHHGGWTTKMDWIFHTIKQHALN
Chain of PI3K-α (P27986 whole entry partner, species assumed): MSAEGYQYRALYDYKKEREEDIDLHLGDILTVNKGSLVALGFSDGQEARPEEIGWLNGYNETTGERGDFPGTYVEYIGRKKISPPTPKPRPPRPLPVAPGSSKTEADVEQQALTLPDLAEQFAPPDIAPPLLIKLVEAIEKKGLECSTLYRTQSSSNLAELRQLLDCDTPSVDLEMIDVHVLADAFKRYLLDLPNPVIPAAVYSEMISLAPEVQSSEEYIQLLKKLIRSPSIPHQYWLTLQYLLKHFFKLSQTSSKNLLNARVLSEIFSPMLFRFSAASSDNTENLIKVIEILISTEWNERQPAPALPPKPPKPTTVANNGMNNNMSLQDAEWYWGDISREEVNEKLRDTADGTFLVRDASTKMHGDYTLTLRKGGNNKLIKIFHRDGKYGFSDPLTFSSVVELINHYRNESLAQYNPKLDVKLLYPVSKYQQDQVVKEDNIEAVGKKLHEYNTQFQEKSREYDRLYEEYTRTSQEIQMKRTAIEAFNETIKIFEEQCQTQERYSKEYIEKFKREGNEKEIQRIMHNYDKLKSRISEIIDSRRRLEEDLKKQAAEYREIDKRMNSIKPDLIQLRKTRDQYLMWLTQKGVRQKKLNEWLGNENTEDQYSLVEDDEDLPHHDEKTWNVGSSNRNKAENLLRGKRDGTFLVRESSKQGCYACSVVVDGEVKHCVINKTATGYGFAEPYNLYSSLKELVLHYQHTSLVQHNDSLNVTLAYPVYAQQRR
Chain of Human mTOR (FLAG-TOR) (P42345 1360-2549 limits assumed): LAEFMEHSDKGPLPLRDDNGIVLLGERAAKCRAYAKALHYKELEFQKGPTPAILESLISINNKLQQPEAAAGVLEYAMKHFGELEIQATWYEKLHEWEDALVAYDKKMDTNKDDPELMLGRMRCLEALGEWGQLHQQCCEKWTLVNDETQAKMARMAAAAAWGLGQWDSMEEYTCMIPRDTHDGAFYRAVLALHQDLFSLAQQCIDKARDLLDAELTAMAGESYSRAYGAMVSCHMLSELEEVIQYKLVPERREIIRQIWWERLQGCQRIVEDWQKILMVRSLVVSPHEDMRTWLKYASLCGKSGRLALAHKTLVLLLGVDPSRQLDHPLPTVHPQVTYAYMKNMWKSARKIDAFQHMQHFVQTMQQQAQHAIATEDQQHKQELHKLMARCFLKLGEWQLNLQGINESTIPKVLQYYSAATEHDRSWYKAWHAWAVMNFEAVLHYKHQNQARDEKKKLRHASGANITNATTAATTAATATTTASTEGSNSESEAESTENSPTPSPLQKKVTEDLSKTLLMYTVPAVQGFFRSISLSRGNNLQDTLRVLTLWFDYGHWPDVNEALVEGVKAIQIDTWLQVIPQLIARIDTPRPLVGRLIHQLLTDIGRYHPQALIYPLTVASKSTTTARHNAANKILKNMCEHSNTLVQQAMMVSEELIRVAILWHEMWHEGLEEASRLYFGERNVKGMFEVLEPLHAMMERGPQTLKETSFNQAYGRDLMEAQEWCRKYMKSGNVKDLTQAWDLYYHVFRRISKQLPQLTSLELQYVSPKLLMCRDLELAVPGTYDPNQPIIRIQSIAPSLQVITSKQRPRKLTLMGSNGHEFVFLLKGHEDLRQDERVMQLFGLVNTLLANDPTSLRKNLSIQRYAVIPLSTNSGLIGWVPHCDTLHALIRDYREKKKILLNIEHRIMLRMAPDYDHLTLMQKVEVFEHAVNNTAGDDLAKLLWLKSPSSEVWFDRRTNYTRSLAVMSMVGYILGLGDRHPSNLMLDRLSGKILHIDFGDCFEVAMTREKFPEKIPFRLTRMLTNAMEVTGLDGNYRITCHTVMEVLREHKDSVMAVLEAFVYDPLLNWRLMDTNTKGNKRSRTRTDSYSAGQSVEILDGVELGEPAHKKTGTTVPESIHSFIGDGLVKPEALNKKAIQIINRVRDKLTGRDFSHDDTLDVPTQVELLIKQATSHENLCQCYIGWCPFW
Chain of PI3K-γ (P48736 whole entry, species assumed): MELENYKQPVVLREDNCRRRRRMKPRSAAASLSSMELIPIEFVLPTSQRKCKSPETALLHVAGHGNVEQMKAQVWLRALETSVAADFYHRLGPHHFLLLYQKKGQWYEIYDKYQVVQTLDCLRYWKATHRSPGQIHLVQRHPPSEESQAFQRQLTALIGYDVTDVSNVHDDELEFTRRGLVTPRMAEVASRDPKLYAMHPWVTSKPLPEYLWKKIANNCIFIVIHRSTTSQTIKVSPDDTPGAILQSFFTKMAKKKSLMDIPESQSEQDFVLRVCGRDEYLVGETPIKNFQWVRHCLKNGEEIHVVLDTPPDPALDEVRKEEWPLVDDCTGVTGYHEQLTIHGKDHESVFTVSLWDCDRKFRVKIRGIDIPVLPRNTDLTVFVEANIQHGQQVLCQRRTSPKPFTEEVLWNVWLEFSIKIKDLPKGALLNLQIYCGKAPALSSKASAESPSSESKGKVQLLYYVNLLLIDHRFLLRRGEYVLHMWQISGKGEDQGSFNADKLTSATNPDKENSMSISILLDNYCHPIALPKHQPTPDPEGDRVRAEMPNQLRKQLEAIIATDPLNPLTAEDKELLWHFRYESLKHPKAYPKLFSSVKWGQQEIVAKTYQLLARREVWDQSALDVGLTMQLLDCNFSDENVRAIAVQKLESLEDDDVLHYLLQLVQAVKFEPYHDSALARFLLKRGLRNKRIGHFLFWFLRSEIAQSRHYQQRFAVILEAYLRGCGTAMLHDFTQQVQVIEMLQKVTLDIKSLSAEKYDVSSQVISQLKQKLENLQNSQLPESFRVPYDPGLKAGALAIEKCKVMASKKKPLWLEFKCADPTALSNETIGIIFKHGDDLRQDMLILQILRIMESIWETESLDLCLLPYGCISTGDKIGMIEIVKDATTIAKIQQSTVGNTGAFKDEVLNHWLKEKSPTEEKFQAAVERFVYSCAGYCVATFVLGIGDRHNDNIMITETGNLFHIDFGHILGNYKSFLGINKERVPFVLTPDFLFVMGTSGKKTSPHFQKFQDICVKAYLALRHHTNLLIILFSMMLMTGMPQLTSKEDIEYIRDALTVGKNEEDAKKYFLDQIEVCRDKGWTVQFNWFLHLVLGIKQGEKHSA

On to `C[C@@H]1COCCN1c1nc(-c2ccc(NC(=O)Nc3ccc(CN(C)C)cc3)cc2)nc(N2CCOC[C@H]2C)n1` [Example 401, 1-(4-(4,6-bis((R)-3-methylmorpholino)-1,3,5-triazin-2-yl)phenyl)-3-(4-((dimethylamino)methyl)phenyl)urea], for which the half-inhibitory concentration (IC50) on PI3K-γ (read-out: IC50 PI3Kγ) was 3250 nM; on PI3K-α, 413 nM; at Human mTOR (FLAG-TOR), 2 nM; in experiment [1] it was 21 nM.

With `C[C@@H]1COCCN1c1nc(-c2ccc(NC(=O)Nc3ccc(OCCN(C)C)cc3)cc2)nc(N2CCOC[C@H]2C)n1` [Example 402, 1-(4-(4,6-bis((R)-3-methylmorpholino)-1,3,5-triazin-2-yl)phenyl)-3-(4-(2-(dimethylamino)ethoxy)phenyl)urea], the IC50 at PI3K-γ (read-out: IC50 PI3Kγ) was 3640 nM; at PI3K-α, 543 nM; at Human mTOR (FLAG-TOR), 1.8 nM; in experiment [1], 7 nM.

Consider `C[C@@H]1COCCN1c1nc(-c2ccc(NC(=O)Nc3ccc(OCCN4CCCC4)cc3)cc2)nc(N2CCOC[C@H]2C)n1` [Example 403, 1-(4-(4,6-bis((R)-3-methylmorpholino)-1,3,5-triazin-2-yl)phenyl)-3-(4-(2-(pyrrolidin-1-yl)ethoxy)phenyl)urea], for which the IC50 at PI3K-γ (read-out: IC50 PI3Kγ) came to 2380 nM; on PI3K-α, 314 nM; on Human mTOR (FLAG-TOR), 0.75 nM; in experiment [1] it was 8 nM.

For the compound `O=C(Nc1ccncc1)Nc1ccc(-c2nc(C3=CCOCC3)nc(N3C4CCC3COC4)n2)cc1` [Example 404, 1-(4-(4-(3-oxa-8-azabicyclo[3.2.1]octan-8-yl)-6-(3,6-dihydro-2H-pyran-4-yl)-1,3,5-triazin-2-yl)phenyl)-3-(pyridin-4-yl)urea], the IC50 came to 433 nM at PI3K-γ (read-out: IC50 PI3Kγ), 63 nM at PI3K-α, 0.69 nM on Human mTOR (FLAG-TOR) and 60 nM in experiment [1].

For `O=C(Nc1ccncc1)Nc1ccc(-c2nc(C3CCOCC3)nc(N3C4CCC3COC4)n2)cc1` [Example 406, 1-(4-(4-(3-oxa-8-azabicyclo[3.2.1]octan-8-yl)-6-(tetrahydro-2H-pyran-4-yl)-1,3,5-triazin-2-yl)phenyl)-3-(pyridin-4-yl)urea], the IC50 at PI3K-γ (read-out: IC50 PI3Kγ) came out at 1880 nM; on PI3K-α, 478 nM; at Human mTOR (FLAG-TOR), 0.38 nM; in experiment [1], 2.4 nM.

Regarding `CN(C)Cc1ccc(NC(=O)Nc2ccc(-c3nc(C4CCOCC4)nc(N4C5CCC4COC5)n3)cc2)cc1` [Example 409, 1-(4-(4-(3-oxa-8-azabicyclo[3.2.1]octan-8-yl)-6-(tetrahydro-2H-pyran-4-yl)-1,3,5-triazin-2-yl)phenyl)-3-(4-((dimethylamino)methyl)phenyl)urea], the IC50 came to 4490 nM at PI3K-γ (read-out: IC50 PI3Kγ), 856 nM at PI3K-α, 1.5 nM on Human mTOR (FLAG-TOR) and 50 nM in experiment [1].

`C[C@@H]1COCCN1c1nc(-c2ccc(NC(=O)Nc3ccncc3)cc2)nc(N2C[C@@H]3C[C@H]2CO3)n1` [Example 410, 1-(4-(4-((1S,4S)-2-oxa-5-azabicyclo[2.2.1]heptan-5-yl)-6-((R)-3-methylmorpholino)-1,3,5-triazin-2-yl)phenyl)-3-(pyridin-4-yl)urea]: the IC50 on PI3K-γ (read-out: IC50 PI3Kγ) came to 5680 nM; at PI3K-α, 826 nM; on Human mTOR (FLAG-TOR), 2.3 nM; in experiment [1] it was 110 nM.

`C[C@@H]1COCCN1c1nc(-c2ccc(NC(=O)Nc3cccnc3)cc2)nc(N2C[C@@H]3C[C@H]2CO3)n1` [Example 411, 1-(4-(4-((1S,4S)-2-oxa-5-azabicyclo[2.2.1]heptan-5-yl)-6-((R)-3-methylmorpholino)-1,3,5-triazin-2-yl)phenyl)-3-(pyridin-3-yl)urea]: the IC50 is over 10000 nM on PI3K-γ, 1900 nM at PI3K-α, 3.6 nM at Human mTOR (FLAG-TOR) and 250 nM in experiment [1].

For the compound `C[C@@H]1COCCN1c1nc(-c2ccc(NC(=O)Nc3ccc(N4CCN(C)CC4)cc3)cc2)nc(N2C[C@@H]3C[C@H]2CO3)n1` [Example 412, 1-(4-(4-((1S,4S)-2-oxa-5-azabicyclo[2.2.1]heptan-5-yl)-6-((R)-3-methylmorpholino)-1,3,5-triazin-2-yl)phenyl)-3-(4-(4-methylpiperazin-1-yl)phenyl)urea], the IC50 on PI3K-γ (read-out: IC50 PI3Kγ) was 7480 nM; at PI3K-α, 1230 nM; at Human mTOR (FLAG-TOR), 7.3 nM; in experiment [1] it was 25 nM.

For the compound `C[C@@H]1COCCN1c1nc(-c2ccc(NC(=O)Nc3ccc(CN4CCN(C)CC4)cc3)cc2)nc(N2C[C@@H]3C[C@H]2CO3)n1` [Example 413, 1-(4-(4-((1S,4S)-2-oxa-5-azabicyclo[2.2.1]heptan-5-yl)-6-((R)-3-methylmorpholino)-1,3,5-triazin-2-yl)phenyl)-3-(4-((4-methylpiperazin-1-yl)methyl)phenyl)urea], the IC50 is over 10000 nM against PI3K-γ, 1520 nM on PI3K-α, 9.2 nM at Human mTOR (FLAG-TOR) and 150 nM in experiment [1].

In the case of `C[C@@H]1COCCN1c1nc(-c2ccc(NC(=O)Nc3ccc(CN4CCCC4)cc3)cc2)nc(N2C[C@@H]3C[C@H]2CO3)n1` [Example 414, 1-(4-(4-((1S,4S)-2-oxa-5-azabicyclo[2.2.1]heptan-5-yl)-6-((R)-3-methylmorpholino)-1,3,5-triazin-2-yl)phenyl)-3-(4-(pyrrolidin-1-ylmethyl)phenyl)urea], the IC50 on PI3K-γ (read-out: IC50 PI3Kγ) is 5450 nM; on PI3K-α it was 969 nM; on Human mTOR (FLAG-TOR), 6.9 nM; in experiment [1], 120 nM.

`C[C@@H]1COCCN1c1nc(-c2ccc(NC(=O)Nc3cccnc3)cc2)nc(N2C3CCC2COC3)n1` [Example 415, 1-(4-(4-(3-oxa-8-azabicyclo[3.2.1]octan-8-yl)-6-((R)-3-methylmorpholino)-1,3,5-triazin-2-yl)phenyl)-3-(pyridin-3-yl)urea]: the IC50 worked out at 3260 nM at PI3K-γ (read-out: IC50 PI3Kγ), 787 nM at PI3K-α, 0.38 nM at Human mTOR (FLAG-TOR) and 29 nM in experiment [1].

Regarding `C[C@@H]1COCCN1c1nc(-c2ccc(NC(=O)Nc3ccncc3)cc2)nc(N2C3CCC2COC3)n1` [Example 416, 1-(4-(4-(3-oxa-8-azabicyclo[3.2.1]octan-8-yl)-6-((R)-3-methylmorpholino)-1,3,5-triazin-2-yl)phenyl)-3-(pyridin-4-yl)urea], the IC50 is 2500 nM at PI3K-γ (read-out: IC50 PI3Kγ), 446 nM at PI3K-α, 0.55 nM on Human mTOR (FLAG-TOR) and 12 nM in experiment [1].

Turning to `C[C@@H]1COCCN1c1nc(-c2ccc(NC(=O)Nc3ccc(CN4CCCC4)cc3)cc2)nc(N2C3CCC2COC3)n1` [Example 418, 1-(4-(4-(3-oxa-8-azabicyclo[3.2.1]octan-8-yl)-6-((R)-3-methylmorpholino)-1,3,5-triazin-2-yl)phenyl)-3-(4-(pyrrolidin-1-ylmethyl)phenyl)urea], the IC50 was determined as 3480 nM at PI3K-γ (read-out: IC50 PI3Kγ), 520 nM on PI3K-α, 1.5 nM at Human mTOR (FLAG-TOR) and 40 nM in experiment [1].

Consider `C[C@@H]1COCCN1c1nc(-c2ccc(NC(=O)Nc3ccc(N4CCN(C)CC4)cc3)cc2)nc(C2CCOCC2)n1` [Example 421, (R)-1-(4-(4-(3-methylmorpholino)-6-(tetrahydro-2H-pyran-4-yl)-1,3,5-triazin-2-yl)phenyl)-3-(4-(4-methylpiperazin-1-yl)phenyl)urea], for which the IC50 on PI3K-γ (read-out: IC50 PI3Kγ) came to 1570 nM; at PI3K-α, 414 nM; on Human mTOR (FLAG-TOR), 0.72 nM; in experiment [1], 1 nM.

With `C[C@@H]1COCCN1c1nc(-c2ccc(NC(=O)Nc3ccc(N4CCNCC4)cc3)cc2)nc(C2CCOCC2)n1` [Example 422, (R)-1-(4-(4-(3-methylmorpholino)-6-(tetrahydro-2H-pyran-4-yl)-1,3,5-triazin-2-yl)phenyl)-3-(4-(piperazin-1-yl)phenyl)urea], the concentration for half-maximal inhibition (IC50) amounted to 1220 nM on PI3K-γ (read-out: IC50 PI3Kγ), 269 nM on PI3K-α, 0.79 nM on Human mTOR (FLAG-TOR) and 2 nM in experiment [1].

With `CN1CCN(c2ccc(NC(=O)Nc3ccc(-c4nc(N5CC[S+]([O-])CC5)nc(N5C6CCC5COC6)n4)cc3)cc2)CC1` [Example 426, 1-(4-(4-(3-oxa-8-azabicyclo[3.2.1]octan-8-yl)-6-sulfoxymorpholino-1,3,5-triazin-2-yl)phenyl)-3-(4-(4-methylpiperazin-1-yl)phenyl)urea], the IC50 on PI3K-γ (read-out: IC50 PI3Kγ) came out at 8480 nM; at PI3K-α it was 1220 nM; at Human mTOR (FLAG-TOR) it was 53 nM; in experiment [1], 700 nM.

As for `C[C@@H]1COCCN1c1nc(-c2ccc(NC(=O)Nc3ccc(OCCN(C)C)cc3)cc2)nc(C2CCOCC2)n1` [Example 427, (R)-1-(4-(2-(dimethylamino)ethoxy)phenyl)-3-(4-(4-(3-methylmorpholino)-6-(tetrahydro-2H-pyran-4-yl)-1,3,5-triazin-2-yl)phenyl)urea], the half-maximal inhibitory concentration (IC50) on PI3K-γ (read-out: IC50 PI3Kγ) was 1420 nM; on PI3K-α it was 580 nM; on Human mTOR (FLAG-TOR), 1.3 nM; in experiment [1], 7 nM.

Take `CCN1CCN(c2ccc(NC(=O)Nc3ccc(-c4nc(C5CCOCC5)nc(N5CCOC[C@H]5C)n4)cc3)cc2)CC1` [Example 428, (R)-1-(4-(4-ethylpiperazin-1-yl)phenyl)-3-(4-(4-(3-methylmorpholino)-6-(tetrahydro-2H-pyran-4-yl)-1,3,5-triazin-2-yl)phenyl)urea]: the IC50 on PI3K-γ (read-out: IC50 PI3Kγ) was found to be 840 nM; on PI3K-α it was 450 nM; on Human mTOR (FLAG-TOR) it was 1.4 nM; in experiment [1] it was 1 nM.

For the compound `CC(C)N1CCN(c2ccc(NC(=O)Nc3ccc(-c4nc(C5CCOCC5)nc(N5CCOC[C@H]5C)n4)cc3)cc2)CC1` [Example 429, (R)-1-(4-(4-isopropylpiperazin-1-yl)phenyl)-3-(4-(4-(3-methylmorpholino)-6-(tetrahydro-2H-pyran-4-yl)-1,3,5-triazin-2-yl)phenyl)urea], the concentration for half-maximal inhibition (IC50) at PI3K-γ (read-out: IC50 PI3Kγ) turned out to be 1000 nM; on PI3K-α, 483 nM; at Human mTOR (FLAG-TOR) it was 1.9 nM; in experiment [1], 9 nM.
